Results taken from article PMC9586930, “Molecular insights into the distinct signaling duration for the peptide-induced PTH1R activation” (Nature Communications, 2022).
Substitutions are numbered along the chain they refer to.

Columns and labels:
Conditions in all cases: for ΔpEC50±SEM: relative to WT, n = 3 in triplicate; for ΔpEC50±SEM / Span±SEM: mean ± SEM; for Span±SEM: window between maximal response (Emax) and vehicle, n = 3
PTH1R L244A mutant = target: T1, PTH1R L244A mutant (Homo sapiens, UniProt Q03431, L244A); experiment: cAMP accumulation assay (GloSensor), PTH1R L244A; type: cell-based
T1 construct: a flag-tag was fused to the N terminal of full-length PTH1R (WT or mutant); expressed in transfected cells; host or cells: HEK293T
T1 sequence (Q03431 27-593 L244A): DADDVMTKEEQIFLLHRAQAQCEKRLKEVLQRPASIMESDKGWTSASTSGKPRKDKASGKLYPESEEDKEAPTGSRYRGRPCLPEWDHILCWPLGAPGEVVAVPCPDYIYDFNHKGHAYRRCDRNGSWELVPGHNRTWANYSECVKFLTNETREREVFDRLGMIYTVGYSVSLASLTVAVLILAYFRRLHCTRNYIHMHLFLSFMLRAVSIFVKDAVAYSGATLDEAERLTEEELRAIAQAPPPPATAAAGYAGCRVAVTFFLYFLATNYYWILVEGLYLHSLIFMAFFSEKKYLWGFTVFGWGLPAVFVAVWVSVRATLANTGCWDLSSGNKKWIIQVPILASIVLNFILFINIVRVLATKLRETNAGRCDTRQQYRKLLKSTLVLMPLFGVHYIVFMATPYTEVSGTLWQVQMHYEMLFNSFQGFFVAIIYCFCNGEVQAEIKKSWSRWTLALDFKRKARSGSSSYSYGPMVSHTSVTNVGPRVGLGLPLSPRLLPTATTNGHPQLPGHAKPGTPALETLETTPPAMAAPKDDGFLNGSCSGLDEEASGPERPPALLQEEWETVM
Method: (§1) Human embryonic kidney 293 T (HEK293T, ATCC: CRL-1573) cells were transfected with a plasmid mixture consisting of pcDNA3.1-flag-PTH1R (WT or mutants) and the cAMP biosensor GloSensor-22F (Promega) at a ratio of 2:1 (see Supplementary Table 7 for a list of primers used in this study). After 24 h, transfected cells were plated onto a 384-well plate, which was treated with cell adherent reagent (Applygen) in advance. After another 12 h, cells were treated with Hank’s balanced salt solution for starvation and then incubated in CO2-independent media containing 4% GloSensor cAMP Reagent (Promega) at a volume of 5 μl per well and incubated for 20 min at RT before measurements for baseline luminescence (Spark Multimode microplate reader, TECAN). Next, test ligands were added at different concentrations from 10^−6 to 10^−13 M before second measurement. Finally, data were normalized to 100% of the maximal PTH (1-34) response for WT PTH1R using a sigmoidal dose-response in GraphPad Prism.
(§2) Statistical analyses were performed on at least three individual datasets and analysed using GraphPad Prism software. Bars represent differences in the calculated agonist potency (pEC50) and maximum agonist response (Emax) for each mutant relative to the WT receptor. Data are mean± s.e.m. from at least three independent experiments, performed in triplicates. ns, not significant, ^nsP > 0.01; ^*P < 0.01; ^**P < 0.001; ^***P < 0.0001 (one-way analysis of variance (ANOVA) followed by Dunnett’s test, compared with the response of the WT). For dose-response experiments, data were normalized and analyzed using nonlinear curve fitting for the log (agonist) versus response (three parameters) curves.

PTH1R F424A mutant = experiment: cAMP accumulation assay (GloSensor), PTH1R F424A; type: cell-based, human
Method: as §1, with “After” for “Human embryonic kidney 293 T (HEK293T, ATCC: CRL-1573) cells were transfected with a plasmid mixture consisting of pcDNA3.1-flag-PTH1R (WT or mutants) and the cAMP biosensor GloSensor-22F (Promega) at a ratio of 2:1 (see Supplementary Table 7 for a list of primers used in this study). After”
as §2, with “Bars represent differences in the calculated agonist potency (pEC50) and maximum agonist response (Emax) for each mutant relative to the WT receptor.” left out

PTH1R T430A mutant = target: T2, PTH1R T430A mutant (Homo sapiens, UniProt Q03431, T430A); experiment: cAMP accumulation assay (GloSensor), PTH1R T430A; type: cell-based
T2 construct: a flag-tag was fused to the N terminal of full-length PTH1R (WT or mutant); expressed in transfected cells; host or cells: HEK293T
T2 sequence (Q03431 27-593 T430A): T1 sequence (Q03431 27-593 L244A) with A218L, T404A
Method: as §1, §2

Substance	span (from the WT) (PTH1R L244A mutant; PTH1R L2442.71A, replicate 1)	ΔpEC50 (from the WT) (PTH1R L244A mutant; PTH1R L2442.71A, replicate 1)	span (from the WT) (PTH1R L244A mutant; PTH1R L2442.71A, replicate 2)	ΔpEC50 (from the WT) (PTH1R L244A mutant; PTH1R L2442.71A, replicate 2)	span (from the WT) (PTH1R L244A mutant; PTH1R L2442.71A, replicate 3)	ΔpEC50 (from the WT) (PTH1R L244A mutant; PTH1R L2442.71A, replicate 3)	ΔpEC50±SEM (PTH1R L244A mutant)	ΔpEC50 (from the WT) (PTH1R L244A mutant; replicate 1)	ΔpEC50 (from the WT) (PTH1R L244A mutant; replicate 2)	ΔpEC50 (from the WT) (PTH1R L244A mutant; replicate 3)	Span±SEM (PTH1R L244A mutant)	span (from the WT) (PTH1R F424A mutant; PTH1R F4246.56A, replicate 1)	ΔpEC50 (from the WT) (PTH1R F424A mutant; PTH1R F4246.56A, replicate 1)	span (from the WT) (PTH1R F424A mutant; PTH1R F4246.56A, replicate 2)	ΔpEC50 (from the WT) (PTH1R F424A mutant; PTH1R F4246.56A, replicate 2)	span (from the WT) (PTH1R F424A mutant; PTH1R F4246.56A, replicate 3)	ΔpEC50 (from the WT) (PTH1R F424A mutant; PTH1R F4246.56A, replicate 3)	ΔpEC50±SEM (PTH1R F424A mutant)	ΔpEC50 (from the WT) (PTH1R F424A mutant; replicate 1)	ΔpEC50 (from the WT) (PTH1R F424A mutant; replicate 2)	further results
H-AVAEIQLMHQRAKWIQDARRRAFLHKLIAEIHTAEI-OH [LA-PTH, long-acting PTH analog, modified PTH/PTHrP hybrid]	131	-0.382	190.8	-0.346	179.4	-0.43	-0.39±0.02	-0.382	-0.346	-0.43	167.07±18.33	141.3	-1.04	117.4	-1.083	173.2	-1.36	-1.16±0.1	-1.04	-1.083	ΔpEC50 (from the WT) (PTH1R F424A mutant; replicate 3): -1.36; span (from the WT) (PTH1R T430A mutant; PTH1R T430ECL3A, replicate 1): 172.2; ΔpEC50 (from the WT) (PTH1R T430A mutant; PTH1R T430ECL3A, replicate 1): -1.056; span (from the WT) (PTH1R T430A mutant; PTH1R T430ECL3A, replicate 2): 195.6; ΔpEC50 (from the WT) (PTH1R T430A mutant; PTH1R T430ECL3A, replicate 2): -1.067; span (from the WT) (PTH1R T430A mutant; PTH1R T430ECL3A, replicate 3): 155.2; ΔpEC50 (from the WT) (PTH1R T430A mutant; PTH1R T430ECL3A, replicate 3): -1.166; ΔpEC50±SEM (PTH1R T430A mutant): -1.10±0.03; ΔpEC50 (from the WT) (PTH1R T430A mutant; replicate 1): -1.056; ΔpEC50 (from the WT) (PTH1R T430A mutant; replicate 2): -1.067; ΔpEC50 (from the WT) (PTH1R T430A mutant; replicate 3): -1.166; Span±SEM (PTH1R T430A mutant): 174.33±11.17
H-AVSEHQLLHDKGKSIQDLRRRELLEKLL-{Aib}-KLHTA-NH2 [ABL, Abaloparatide, an analog of PTHrP, short-acting PTH1R agonist]	180	-2.593	247.7	-2.562	245.8	-2.458	-2.54±0.04	-2.593	-2.562	-2.458	224.50±22.26	148.5	-1.943	140.3	-2.006	170.8	-2.077	-2.01±0.04	-1.943	-2.006	ΔpEC50 (from the WT) (PTH1R F424A mutant; replicate 3): -2.077; Span±SEM (PTH1R F424A mutant): 153.20±9.11; span (from the WT) (PTH1R T430A mutant; PTH1R T430ECL3A, replicate 1): 230.5; ΔpEC50 (from the WT) (PTH1R T430A mutant; PTH1R T430ECL3A, replicate 1): -0.76; span (from the WT) (PTH1R T430A mutant; PTH1R T430ECL3A, replicate 2): 190.2; ΔpEC50 (from the WT) (PTH1R T430A mutant; PTH1R T430ECL3A, replicate 2): -0.775; span (from the WT) (PTH1R T430A mutant; PTH1R T430ECL3A, replicate 3): 191.7; ΔpEC50 (from the WT) (PTH1R T430A mutant; PTH1R T430ECL3A, replicate 3): -0.865; ΔpEC50±SEM (PTH1R T430A mutant): -0.8±0.03; ΔpEC50 (from the WT) (PTH1R T430A mutant; replicate 1): -0.76; ΔpEC50 (from the WT) (PTH1R T430A mutant; replicate 2): -0.775; ΔpEC50 (from the WT) (PTH1R T430A mutant; replicate 3): -0.865; Span±SEM (PTH1R T430A mutant): 204.13±13.19
H-SVSEIQLMHNLGKHLNSMERVEWLRKKLQDVHNF-OH [PTH, Teriparatide, human PTH 1-34, long-acting peptide agonist of PTH1R]	138.7	-0.566	168.7	-0.398	186.9	-0.464	-0.48±0.05	-0.566	-0.398	-0.464	150.17±18.04	181.9	-1.332	192.6	-1.492	166.2	-1.466	-1.43±0.05	-1.332	-1.492	ΔpEC50 (from the WT) (PTH1R F424A mutant; replicate 3): -1.466; Span±SEM (PTH1R F424A mutant): 143.97±16.16; span (from the WT) (PTH1R T430A mutant; PTH1R T430ECL3A, replicate 1): 194; ΔpEC50 (from the WT) (PTH1R T430A mutant; PTH1R T430ECL3A, replicate 1): 0.303; span (from the WT) (PTH1R T430A mutant; PTH1R T430ECL3A, replicate 2): 170.6; ΔpEC50 (from the WT) (PTH1R T430A mutant; PTH1R T430ECL3A, replicate 2): 0.384; span (from the WT) (PTH1R T430A mutant; PTH1R T430ECL3A, replicate 3): 159.7; ΔpEC50 (from the WT) (PTH1R T430A mutant; PTH1R T430ECL3A, replicate 3): 0.286; ΔpEC50±SEM (PTH1R T430A mutant): -0.32±0.03; ΔpEC50 (from the WT) (PTH1R T430A mutant; replicate 1): 0.303; ΔpEC50 (from the WT) (PTH1R T430A mutant; replicate 2): 0.384; ΔpEC50 (from the WT) (PTH1R T430A mutant; replicate 3): 0.286; Span±SEM (PTH1R T430A mutant): 174.77±10.12
